Data published in patent publication US8501783B2, “Conformationally restricted urea inhibitors of soluble epoxide hydrolase” (The Regents of the University of California, priority 2006, dated 2013).

molecular target: human sEH (Homo sapiens (Human), UniProt P34913); assay: Inhibition of human soluble epoxide hydrolase (IC50; one of three substrate methods); format: biochemical; conditions: not given;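 further: enzyme expressed in baculovirus and affinity-purified, assays run in triplicate, with substrate and read-out differing among the three methods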
Sequence (P34913 whole entry): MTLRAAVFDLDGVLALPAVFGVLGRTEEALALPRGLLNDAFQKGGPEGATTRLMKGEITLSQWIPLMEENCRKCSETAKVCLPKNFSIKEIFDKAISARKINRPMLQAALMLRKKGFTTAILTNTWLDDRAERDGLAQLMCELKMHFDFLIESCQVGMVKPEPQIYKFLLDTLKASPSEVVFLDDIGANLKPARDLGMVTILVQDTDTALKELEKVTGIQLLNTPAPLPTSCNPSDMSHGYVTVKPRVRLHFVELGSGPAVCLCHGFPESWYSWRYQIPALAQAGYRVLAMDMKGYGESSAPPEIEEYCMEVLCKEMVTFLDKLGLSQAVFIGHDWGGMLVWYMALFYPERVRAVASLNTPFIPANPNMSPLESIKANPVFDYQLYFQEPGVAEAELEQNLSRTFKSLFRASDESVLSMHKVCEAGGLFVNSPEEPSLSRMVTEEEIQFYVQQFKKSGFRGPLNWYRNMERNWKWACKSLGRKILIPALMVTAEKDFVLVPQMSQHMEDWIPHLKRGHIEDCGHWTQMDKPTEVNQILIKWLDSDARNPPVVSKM

Compound | IC50 [nM]
O=C(O)CCCC(=O)N1CCC(NC(=O)NC23CC4CC(CC(C4)C2)C3)CC1 [Compound 1501, 5-[4-(3-Adamantan-1-yl-ureido)-piperidin-1-yl]-5-oxo-pentanoic acid] | 72.8
O=C(NC1CCN(C(=O)c2ccncc2)CC1)NC12CC3CC(CC(C3)C1)C2 [Compound 1433, N-(1-(pyridine-4-carbonyl)piperidin-4-yl)-N′-(adamant-1-yl)urea] | 1.7
O=C(NC1CCN(C(=O)c2ccccc2C(=O)O)CC1)NC12CC3CC(CC(C3)C1)C2 [Compound 1507, 2-[4-(3-Adamantan-1-yl-ureido)-piperidine-1-carbonyl]-benzoic acid] | 161
O=C(NC1CCN(C(=O)c2cccc(C(=O)O)c2)CC1)NC12CC3CC(CC(C3)C1)C2 [Compound 1505, 3-[4-(3-Adamantan-1-yl-ureido)-piperidine-1-carbonyl]-benzoic acid] | 10.1
O=C(NC1CCN(C(=O)c2ccc(C(=O)O)cc2)CC1)NC12CC3CC(CC(C3)C1)C2 [Compound 1523, 4-[4-(3-Adamantan-1-yl-ureido)-piperidine-1-carbonyl]-benzoic acid] | 3.3
COC(=O)c1cccc(C(=O)N2CCC(NC(=O)NC34CC5CC(CC(C5)C3)C4)CC2)c1 [Compound 1203, 3-[4-(3-Adamantan-1-yl-ureido)-piperidine-1-carbonyl]-benzoic acid methyl ester] | 1.1
COC(=O)CCC(=O)N1CCC(NC(=O)NC23CC4CC(CC(C4)C2)C3)CC1 [Compound 1205, 4-[4-(3-Adamantan-1-yl-ureido)-piperidin-1-yl]-4-oxo-butanoic acid methyl ester] | 9
O=C(NC1CCN(C(=O)c2cccnc2)CC1)NC12CC3CC(CC(C3)C1)C2 [Compound 1434, N-(1-(Pyridine-3-carbonyl)piperidin-4-yl)-N′-(adamant-1-yl)urea] | 2.1

same assay, conditions: recombinant human sEH

IC50 [nM] | Compound
1.8 | COC(=O)c1ccccc1C(=O)N1CCC(CNC(=O)NC23CC4CC(CC(C4)C2)C3)CC1 [Compound 1210, 2-{4-[(3-Adamantan-1-yl-ureido)-methyl]-piperidine-1-carbonyl}-benzoic acid methy ester]
1330 | Cc1c(COC(=O)NCc2ccncc2)cccc1-c1ccccc1 [Compound 1558, Pyridin-4-ylmethyl-carbamic acid 2-methyl-biphenyl-3-ylmethyl ester]
5.4 | O=C(NCC1CCN(C(=O)c2ccncc2)CC1)NC12CC3CC(CC(C3)C1)C2 [Compound 1435]
87 | O=C(Nc1ccc2[nH]ccc2c1)NC1CCCCC1 [Compound 1554, 1-Cyclohexyl-3-(1H-indol-5-yl)-urea]
1.8 | O=C(NCC1CCN(C(=O)C(F)(F)F)CC1)NC12CC3CC(CC(C3)C1)C2 [Compound 1556]
13600 | O=C(NC1CCCCC1)NC12CN3CN(CN(C3)C1)C2 [Compound 1549, 1-Cyclohexyl-3-(1,3,5-triaza-tricyclo[3.3.1.1^3.7]dec-7-yl)-urea]
1.7 | COC(=O)c1ccccc1C(=O)N1CCC(NC(=O)NC23CC4CC(CC(C4)C2)C3)CC1 [Compound 1202, 2-[4-(3-Adamantan-1-yl-ureido)-piperidine-1-carbonyl]-benzoic acid methyl ester]
4210 | O=C(N1CCC(NC(=O)C23CC4CC(CC(C4)C2)C3)CC1)C(F)(F)F [Compound 1643, Adamantane-1-carboxylic acid [1-(2,2,2-trifluoro-acetyl)-piperidin-4-yl]-amide]
0.4 | Cc1ccc(S(=O)(=O)N2CCC(NC(=O)Nc3ccc(OC(F)(F)F)cc3)CC2)cc1 [Compound 1711, 1-[1-(Toluene-4-sulfonyl)-piperidin-4-yl]-3-(4-trifluoromethoxy-phenyl)-urea]
3.4 | COC(=O)CCCC(=O)N1CCC(CNC(=O)NC23CC4CC(CC(C4)C2)C3)CC1 [Compound 1212, 5-{4-[(3-Adamantan-1-yl-ureido)-methyl]-piperidin-1-yl}-5-oxo-pentanoic acid methyl ester]
4.1 | COC(=O)c1cccc(C(=O)N2CCC(CNC(=O)NC34CC5CC(CC(C5)C3)C4)CC2)c1 [Compound 1209, 3-{4-[(3-Adamantan-1-yl-ureido)-methyl]-piperidine-1-carbonyl}-benzoic acid methy ester]
42.5 | CCCCCCCCCCCCNC(=O)NC1CCNCC1 [Compound 1550, 1-Dodecyl-3-piperidin-4-yl-urea]
41.6 | O=C(O)CCCC(=O)N1CCC(CNC(=O)NC23CC4CC(CC(C4)C2)C3)CC1 [Compound 1500, 5-{4-[(3-Adamantan-1-yl-ureido)-methyl]-piperidin-1-yl}-5-oxo-pentanoic acid]
100000 | O=C(NC1CCNCC1)NC1CCNCC1 [Compound 1604, 1,3-Di-piperidin-4-yl-urea]
1.5 | COC(=O)c1ccc(C(=O)N2CCC(CNC(=O)NC34CC5CC(CC(C5)C3)C4)CC2)cc1 [Compound 1211, 4-{4-[(3-Adamantan-1-yl-ureido)-methyl]-piperidine-1-carbonyl}-benzoic acid methyl ester]
12600 | CC(=O)N1CCC(NC(=O)C23CC4CC(CC(C4)C2)C3)CC1 [Compound 1641, Adamantane-1-carboxylic acid (1-acetyl-piperidin-4-yl)-amide]
8.7 | CCC(=O)N1CCC(CNC(=O)NC23CC4CC(CC(C4)C2)C3)CC1 [Compound 1162, N-((1-propanoylpiperidin-4-yl)methyl)-N′-(adamant-1-yl)urea]
4410 | Cc1c(COC(=O)NCc2cccnc2)cccc1-c1ccccc1 [Compound 1560, Pyridin-3-ylmethyl-carbamic acid 2-methyl-biphenyl-3-ylmethyl ester]
254 | O=C(O)CCC(=O)N1CCC(NC(=O)NC23CC4CC(CC(C4)C2)C3)CC1 [Compound 1503, 4-[4-(3-Adamantan-1-yl-ureido)-piperidin-1-yl]-4-oxo-butanoic acid]

IC50 [nM] | Compound
457 | O=C(Nc1ccc2[nH]cnc2c1)NC1CCCCC1 [Compound 1569, 1-(1H-Benzoimidazol-5-yl)-3-cyclohexyl-urea]
5020 | CCCCCCCCCCCCNC(=O)Nc1ccc2[nH]cnc2c1 [Compound 1568, 1-(1H-Benzoimidazol-5-yl)-3-dodecyl-urea]
4.8 | O=C(NC1CCN(C(=O)c2ccccc2)CC1)NC1CCN(C(=O)c2ccccc2)CC1 [Compound 1605, 1,3-Bis-(1-benzoyl-piperidin-4-yl)urea]
4.3 | CC(C)(C)OC(=O)N1CCC(NC(=O)NC2CCCCC2)CC1 [Compound 1551, 4-(3-Cyclohexyl-ureido)-piperidine-1-carboxylic acid tert-butyl ester]
28.3 | O=C(CC12CC3CC(CC(C3)C1)C2)NC1CCN(C(=O)C(F)(F)F)CC1 [Compound 1644]
43.6 | O=C(NCC1CCN(C(=O)c2cccc(C(=O)O)c2)CC1)NC12CC3CC(CC(C3)C1)C2 [Compound 1504, 3-{4-[(3-Adamantan-1-yl-ureido)-methyl]-piperidine-1-carbonyl}-benzoic acid]
65300 | O=C(Oc1cccc(-c2ccccc2)c1)N1CCOCC1 [Compound 1561, Morpholine-4-carboxylic acid biphenyl-3-yl ester]
2320 | O=C(Nc1ccc(OC(F)(F)F)cc1)NC1CCNCC1 [Compound 1570, 1-Piperidin-4-yl-3-(4-trifluoromethoxy-phenyl)-urea]
7.6 | O=C(NCC1CCN(C(=O)c2ccccn2)CC1)NC12CC3CC(CC(C3)C1)C2 [Compound 1207]
0.8 | CN(C)c1cccc2c(S(=O)(=O)N3CCC(NC(=O)Nc4ccc(OC(F)(F)F)cc4)CC3)cccc12 [Compound 1710, 1-[1-(5-dimethylamino-naphthalene-1-sulfonyl)-piperidin-4-yl]-3-(4-trifluoromethoxy-phenyl)-urea]
11.8 | O=C(NCC1CCN(C(=O)c2ccc(C(=O)O)cc2)CC1)NC12CC3CC(CC(C3)C1)C2 [Compound 1522, 4-{4-[(3-Adamantan-1-yl-ureido)-methyl]-piperidine-1-carbonyl}-benzoic acid]
174 | O=C(O)CCC(=O)N1CCC(CNC(=O)NC23CC4CC(CC(C4)C2)C3)CC1 [Compound 1502, 4-{4-[(3-Adamantan-1-yl-ureido)-methyl]-piperidin-1-yl}-4-oxo-butanoic acid]
6.2 | COC(=O)CCC(=O)N1CCC(CNC(=O)NC23CC4CC(CC(C4)C2)C3)CC1 [Compound 1208, 4-{4-[(3-Adamantan-1-yl-ureido)-methyl]-piperidin-1-yl}-4-oxo-butanoic acid methyl ester]
639 | CCCCCCCCCCCCNC(=O)Nc1ccc2[nH]ccc2c1 [Compound 1553, 1-Dodecyl-3-(1H-indol-5-yl)-urea]
7.3 | O=C(NCC1CCN(C(=O)c2cccnc2)CC1)NC12CC3CC(CC(C3)C1)C2 [Compound 1436, N-((1-(pyridine-3-carbonyl)piperidin-4-yl)methyl)-N′-(adamant-1-yl)urea]
6.7 | CCCC(=O)N1CCC(CNC(=O)NC23CC4CC(CC(C4)C2)C3)CC1 [Compound 1120, N-((1-butyrylpiperidin-4-yl)methyl)-N′-(adamant-1-yl)urea]
407 | O=C(NCC1CCN(C(=O)c2ccccc2C(=O)O)CC1)NC12CC3CC(CC(C3)C1)C2 [Compound 1506, 2-{4-[(3-Adamantan-1-yl-ureido)-methyl]-piperidine-1-carbonyl}-benzoic acid]
562 | O=C(NC1CCCCC1)NC1CCNCC1 [Compound 1602]

Compound | IC50 [nM]
O=C(NCc1cccnc1)Oc1cccc(-c2ccccc2)c1 [Compound 1559, Pyridin-3-ylmethyl-carbamic acid biphenyl-3-yl ester] | 23000
Morpholine-4-carboxylic acid 2-methyl-biphenyl-3-ylmethyl ester [Compound 1562] | 12000
O=C(NCc1ccncc1)Oc1cccc(-c2ccccc2)c1 [Compound 1557, Pyridin-4 ylmethyl-carbamic acid biphenyl-3-yl ester] | 11500

test system: not listed separately; assay: Pharmacokinetic screening in dogs, oral administration, plasma LC-MS/MS; conditions: dog, plasma, po, 0.3 mg/kg

AUC [µM·h] | Compound
0.0817 | CC(=O)N1CCC(CNC(=O)NC23CC4CC(CC(C4)C2)C3)CC1 [Compound 1156, N-((1-acetylpiperidin-4-yl)methyl)-N′-(adamant-1-yl)urea]
